Measured values as given in US20250082654A1, “AZD3355 (LESOGABERAN) FOR TREATMENT AND PREVENTION OF NONALCOHOLIC STEATOHEPATITIS (NASH), LIVER FIBROSIS, AND OTHER LIVER CONDITIONS” (Icahn School of Medicine at Mount Sinai, priority 2018, published 2025).

Legend:
[1] = test system: NASH model mice; experiment: NASH mouse model, histopathological scoring of liver sections; assay type: in vivo; settings: 30 mg/kg daily; for Hepatocyte ballooning ± SE: score 0-2; for Portal inflammation ± SE / Lobular Inflammation ± SE / Steatosis ± SE: score 0-3; for Fibrosis Stage ± SE: score 0-4; for NAFLD activity score (NAS) ± SE: score 0-8
Procedure: Four separate groups of mice were given either 0.5% methylcellulose (as Vehicle) or AZD3355 at 10 mg/kg (low dose) body weight of mice or 30 mg/kg (high dose) body weight of mice by twice daily (BID (5 days/week)) and OCA at 30 mg/kg body weight of mice by daily (QD (5 days/week)) through oral route for up to next 12 weeks (week 13 to week 24). Them last group of mice were not given any drug or vehicle treatment, as No Tx—24 weeks and maintained in parallel with treatment/vehicle groups. Usually all doses were given at early morning and the second daily dose of AZD3355 at evening (10 hours of intervals). All animals were closely monitored the health conditions and behavior.
A piece of tissue from large liver lobe was fixed in 10% Formalin Buffered (Astral Diagnostics Incorporated NJ) embedded in paraffin and microtome sectioning were performed. Slides containing tissue sections were baked at 60° C. for 1 hour and re-hydrated through xylene followed by graded ethanol (100%, 95%, 85% and 70%) into distilled water and processed in either Picrosirius red/Fast green or hematoxylin and eosin staining.
A total of 2 sections/animal were stained with H&E staining performed by standard protocol.
Steatosis, hepatocyte ballooning, lobular inflammation, portal inflammation and fibrosis of picroserious red/fast green and H&E stained liver section were scored according to the NASH Clinical Research Network (NASH CRN) scoring system in a blinded fashion by an expert hepato-pathologist in Icahn School of Medicine at Mount Sinai. NAFLD activity score (NAS) was calculated according to Brunt criteria and range from 0-8. NAS was calculated by the sum of scores of steatosis (0-3), hepatocyte ballooning (0-2) and lobular inflammation (0-3). NAS score of >5.0 strongly correlated with “definite-NASH” whereas <3 correlated with “not-NASH”. Fibrosis (0-4) or portal inflammation (0-3) scores were assessed separately and not included in NAS.

[2] = test system: LX-2 cells; experiment: Fibrogenic gene expression by RT-qPCR; assay type: cell-based, human; settings: 48 and 72 hours
Procedure: The following fibrogenic gene expressions were quantified by RT-qPCR: • 1. Collagen1α1 (Col1α1); • 2. Alpha Smooth Muscle Actin (αSMA); • 3. Beta PDGF receptor (β-PDGFR); • 4. Transforming growth factor-β receptor1 (TGFβ-R1); • 5. Tissue inhibitor of metalloproteinase—1 (TIMP1); • 6. Tissue inhibitor of metalloproteinase—2 (TIMP2); and • 7. Matrix Metalloproteinase 2 (MMP2).
The kinase inhibitor sorafenib (7.5 μM concentration) was used as positive control and run in parallel. 150,000 LX-2 cells or 200,000 phHSCs per well were plated on 6-well plate dish. Cells were starved overnight in DMEM supplemented with 0.1% BSA (without antibiotic). Cells were then incubated with either AZD3355 or sorafenib at the indicated concentration and duration. Cells were harvested and total RNA was extracted using RNeasy Mini Kit (Qiagen, CA). 0.5 μg of total RNA was used for reverse transcription with ‘RNA to cDNA EcoDry Premix (Double Primed) Kit’ (Clontech, CA). Expression of fibrogenic genes were measured by qPCR using custom designed primers (Sigma-Aldrich, MO) and iQ SYBR Green Supermix (Bio-Rad, CA) on a LightCycler 480 II (Roche Diagnostics Corporation, IN) instrument. Glyceraldehyde-3-phosphate dehydrogenase (GAPDH), […] (RPII), α-tubulin and β-actin genes were tested to determine the best fit for housekeeping gene of the study. […]

[3] = test system: LX-2 cells; experiment: Fibrogenic protein expression by western blot and densitometry from cell lysate; assay type: cell-based, human; settings: LX2 cells, 48 or 72 hours, 30 nM or 100 nM AZD3355 or sorafenib
Procedure: (§1) Western blot and RT-qPCR experiments were run in parallel. 150,000 LX-2 cells or 200,000 phHSCs per well were plated on a 6-well plate dish. Cells were starved overnight in DMEM supplemented with 0.1% BSA (without antibiotic). Cells were then incubated with either AZD3355 or sorafenib at the indicated concentration and duration. Cells were harvested and lysed using RIPA buffer (50 mM Tris-HC1 pH8.0, 150 mM NaCl, 1% IGEPAL, 0.5% sodium deoxycholate and 0.1% SDS) along with Pierce Protease Inhibitor Mini Tablets, EDTA-Free (ThermoScientific, IL). Total protein was measured by Bradford colorimetric assay using Protein Assay Dye Reagent Concentrate (Bio-Rad, CA). […] After hybridized with HRP conjugated secondary antibody (either Goat anti-rabbit HRP (Jackson ImmunoResearch Laboratories, PA) or anti-mouse IgG-HRP (Cell Signaling Technology, MA) the membrane was treated with Immobilon Western Chemiluminescent HRP substrate (Millipore, MA) and the signals were captured with Amersham Imager 6000 (GE Healthcare, PA). 210 kD of Col1α1, 72 kD of MMP2 and 42 kD of α-SMA bands were recognized by respective antibody. 37 kD band of GAPDH was probed as loading control. For densitometric measurement of the protein bands, images were exported and analyzed using ImageJ 1.50 f software and bands were normalized to the loading control, GAPDH.

[4] = test system: phHSCs; experiment: as above; assay type: cell-based, human; settings: 48 or 72 hours
Procedure: as §1

[5] = test system: human liver slices; experiment: Liver slice assay, histopathology and H&E staining; assay type: cell-based; settings: 24 hours
Procedure: Ten human liver pieces were collected from the Mount Sinai biorepository. The samples were prepared by coring the liver with 8 mm cylindrical coring tools. The liver cores were kept in ice cold WE medium, with GlutaMAX supplemental. A liver core was then mounted on a specimen plate with cyanoacrylate adhesive. Liver slices (approximately 200 μm in thickness) were placed in ice cold Krebs-Henesleit buffer in the presence of carbogen gas. There was then a 1 hour pre-incubation in WE GlutaMAX media with gentamicin in 95% O2 and 5% CO2 at 37° C. in a humidified rocker chamber to restore ATP levels.
The liver slices were then cultured in WE GlutaMAX media with gentamicin in 95% O2 and 5% CO2 at 37° C. in a humidified rocker chamber with slow 70 rpm rocking in the presence of AZD3355 in the amounts of 250 nM, 500 nM, 1000 nM, or 2000 nM, or sorafenib at 1000 nM., or control vehicle (saline water).
After 24 hours, the tissue slices were harvested for either RNA isolation and quantitative PCR for measurements of Col1α1, TNFα, and IL-6 expression, or for histopathology and hematoxylin and eosin (H&E) staining as described in Example 3.

[6] = test system: carbon tetrachloride-induced liver injury; settings: in vivo; cited from earlier work

CC[C@H]1[C@@H](O)[C@@H]2[C@H](CC[C@]3(C)[C@@H]([C@H](C)CCC(=O)O)CC[C@@H]23)[C@@]2(C)CC[C@@H](O)C[C@@H]12 [OCA, Obeticholic acid, reference compound]
Hepatocyte ballooning ± SE ([1]; ♀ Mice, vehicle 1.2 ± 0.1): 1.1 ± 0.2
Portal inflammation ± SE ([1]; ♀ Mice, vehicle 1.6 ± 0.1): 1.0 ± 0.2
Lobular Inflammation ± SE ([1]; ♀ Mice, vehicle 2.3 ± 0.1): 1.6 ± 0.1
Steatosis ± SE ([1]; ♀ Mice, vehicle 2.5 ± 0.1): 2.0 ± 0.2
Fibrosis Stage ± SE ([1]; ♀ Mice, vehicle 3.0 ± 0.1): 2.2 ± 0.1
NAFLD activity score (NAS) ± SE ([1]; ♀ Mice, vehicle 6.1 ± 0.4): 4.7 ± 0.6
Steatohepatitis Grade ± SE ([1]; ♀ Mice, vehicle 1.8 ± 0.2): 1.4 ± 0.3
Hepatocyte ballooning ± SE ([1]; ♂ Mice, vehicle 1.7 ± 0.1): 1.0 ± 0.2
Portal inflammation ± SE ([1]; ♂ Mice, vehicle 2.0 ± 0.1): 1.3 ± 0.2
Steatosis ± SE ([1]; ♂ Mice, vehicle 2.7 ± 0.1): 2.0 ± 0.2
Lobular Inflammation ± SE ([1]; ♂ Mice, vehicle 2.8 ± 0.1): 1.9 ± 0.2
Fibrosis Stage ± SE ([1]; ♂ Mice, vehicle 3.3 ± 0.1): 2.9 ± 0.1
NAFLD activity score (NAS) ± SE ([1]; ♂ Mice, vehicle 7.2 ± 0.3): 5.0 ± 0.6
Steatohepatitis Grade ± SE ([1]; ♂ Mice, vehicle 2.6 ± 0.2): 1.5 ± 0.3

CNC(=O)c1cc(Oc2ccc(NC(=O)Nc3ccc(Cl)c(C(F)(F)F)c3)cc2)ccn1 [Sorafenib, sorafenib]
gene expression of pro-fibrogenic genes Col1α1, αSMA, βPDGF-R, TGFβ-R1, TIMP1, TIMP2, MMP2 [2]: downregulated
protein expression of Col1α1 (western blot) [3]: no change
protein expression of Col1α1 (western blot) [4]: no change
liver cells viability (H&E) [5]: did not change

NCC(CC(=O)O)c1ccc(Cl)cc1 (stereo not shown) [baclofen]
liver injury due to carbon tetrachloride [6]: attenuates injury
